Results on one compound are retold here after ChEMBL document CHEMBL4680367, “Targeting Stimulator of Interferon Genes (STING) for the Potential Treatment of Cancer and Infectious Diseases” (ACS Med Chem Lett, 2021).

This experiment concerns the target Stimulator of interferon genes protein (Homo sapiens, UniProt Q86WV6). Put plainly: Agonist activity at full length human STING expressed in HEK293T cotransfected with pISRE-luc and cGAS incubated for 24 hrs by steady-glo luciferase reporter gene assay. Type of experiment: cell-based. A general note: In a reporter assay the amount or activity of a reporter protein is the signal.

Structures are written as SMILES. pEC50: −log10 of the molar value.

Usually pEC50 stands for the EC50 on a negative log10 scale, so that one unit is a factor of ten. A lower pEC50 goes with a high EC50.

Sequence of Stimulator of interferon genes protein (Q86WV6 whole entry): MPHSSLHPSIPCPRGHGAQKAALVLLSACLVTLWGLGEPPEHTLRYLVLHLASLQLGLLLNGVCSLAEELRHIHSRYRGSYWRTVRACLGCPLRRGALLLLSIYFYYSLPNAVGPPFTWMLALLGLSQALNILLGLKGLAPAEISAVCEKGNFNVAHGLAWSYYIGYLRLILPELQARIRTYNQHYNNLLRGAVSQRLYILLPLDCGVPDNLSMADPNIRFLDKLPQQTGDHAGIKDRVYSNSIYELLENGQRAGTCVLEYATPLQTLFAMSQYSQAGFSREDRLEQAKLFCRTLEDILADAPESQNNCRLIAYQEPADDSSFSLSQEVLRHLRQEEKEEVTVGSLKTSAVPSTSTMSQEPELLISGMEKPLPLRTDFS

As to `CCCn1c(NC(=O)c2cc(C)nn2CC)nc2cc(C(N)=O)cc(OCN3CCOCC3)c21`, the pEC50 was 6.00.
